Patent US20040028610A1, “Method of increasing the sensitivity of mammography” (priority 2003, published 2004)
Entries after “also recorded” stand apart in the source; their conditions may differ.

Assays:
breast tissue [1] = assay: Administration of testosterone to female patients with dense or fibrous breasts (summary statements); assay type: in vivo, human (pre- and post-menopausal women)
breast tissue [2] = assay: Treatment with topical androgen preparation (PCA cream), then mammography and manual breast examination; assay type: in vivo, human (pre and postmenopausal women)
Description: (§1) In advance of the mammographic procedure, patients were instructed to not wear deodorant (the crystals cause difficulty in reading the films). […] A Picker Digital Mammogram was used to take the frontal and side views of the breast tissue bilaterally. Minimums of two views were taken per breast. The films were then interpreted by a radiologist with experience in interpreting mammograms and graded with the BI-RADS system.
Patients in need of breast cancer examinations were provided topical formulations for administration of androgen preparations in the outpatient setting. Lakeview Pharmacy, Inc made up the compounded equivalent of Depo-Testosterone (150 mg of testosterone cypionate mixed in PCA cream) with an application of 6 inches squeezed from a multi-use tube of the mixture and rubbed into the skin on a daily basis. The androgen preparation was administered as a total monthly dose from about 150 mg to about 200 mg. The formulation was given to approximately 15 pre and postmenopausal women ranging in age from 24 to 80 years of age. The patient was then scheduled for a mammogram at least one month but not more than two months after administration of the androgen preparation. Mammography was performed as described in Example 1.

breast tissue [3] = assay: Treatment with parenteral (intramuscular) androgen preparation, then mammography and manual breast examination; assay type: in vivo, human (pre and postmenopausal women)
Protocol: Patients in need of breast cancer examinations were provided parenteral administration of androgen preparations in the clinical setting. Lakeview Pharmacy, Inc. prepared the compounded equivalent of Depo-Testosterone (Testosterone Cypionate 200 mg/ml dissolved in Cottonseed Oil and preserved with Benzyl Benzoate USP and Benzyl Alcohol NF.) in a multi-use vial. The androgen preparation was administered in a dose of about 150 mg to about 200 mg per month for the treatment of fibrocystic breast disorders. The treating physician delivered the preparation intramuscularly in a single dose. The preparation was given to approximately 40 pre and postmenopausal women ranging in age from 24 to 80 years of age. The patients were then scheduled for a mammogram at least one month but not more than three months after commencement of administration of the androgen preparation.
as §1

[4] = patients presenting with dense breast tissue and attendant mastalgia
[5] = pre- and post-menopausal women with fibrous or dense breasts

| Compound | visualization of breast tissue in mammographic procedures (breast tissue [1]; female patients with dense breast tissue) | mammographic opacity and overall density (breast tissue [1]; [4]) | palpability of breast tissue during manual examination (breast tissue [1]; [4]) | number or size of fibrous (fibrocystic) breast lesions (breast tissue [1]; [5]) | palpable breast density (breast tissue [1]; [5]) | radiographic density (breast tissue [1]; [5]) | symptoms secondary to cyclic causes (sense of breast fullness or heaviness) (breast tissue [1]; [5]) | alteration of the menstrual cycle by the medication (breast tissue [2]; topical) | radiographic breast density on mammographic images (breast tissue [2]; topical PCA cream daily, total monthly dose about 150 mg to about 200 mg, approximately 15 women, seen after only one monthly treatment) | breast palpability by manual examination (breast tissue [2]; topical PCA cream daily, total monthly dose about 150 mg to about 200 mg, seen after only one monthly treatment) | mammographic changes in density, patients affected (breast tissue [2]; topical, most significant in those patients with dense breasts) | lesions requiring 6-month follow up, at second mammogram (breast tissue [2]; topical, sustained treatment for 6 or more months, some lesions) | effects on radiographic and palpable density after two months of treatment (versus one month) (breast tissue [2]; topical, two months of androgen treatment prior to examination) | alteration of the menstrual cycle by the medication (breast tissue [3]) | radiographic breast density on mammographic images (breast tissue [3]; about 150 mg to about 200 mg per month, approximately 40 women, seen after only one monthly treatment, films graded with BI-RADS) | breast palpability by manual examination (breast tissue [3]; about 150 mg to about 200 mg per month, seen after only one monthly treatment) | mammographic changes in density, patients affected (breast tissue [3]; most significant in those patients with dense breasts) | lesions requiring 6-month follow up, at second mammogram (breast tissue [3]; sustained treatment for 6 or more months, some lesions) | effects on radiographic and palpable density after two months of treatment (versus one month) (breast tissue [3]; two months of androgen treatment prior to examination) |
| --- | --- | --- | --- | --- | --- | --- | --- | --- | --- | --- | --- | --- | --- | --- | --- | --- | --- | --- | --- |
| C[C@]12CC[C@H]3[C@@H](CCC4=CC(=O)CC[C@@]43C)[C@@H]1CC[C@@H]2O [testosterone] | significantly improved | marked reduction | significantly improved | decrease; also recorded: reduced | decrease | decrease | eliminated; also recorded: reduced |  |  |  |  |  |  |  |  |  |  |  |  |
| C[C@]12CC[C@H]3[C@@H](CCC4=CC(=O)CC[C@@]43C)[C@@H]1CC[C@@H]2OC(=O)CCC1CCCC1 [Testosterone Cypionate] |  |  |  |  |  |  |  | nor did the medication alter the menstrual cycle | appreciable reduction | improved | noted in all patients | disappeared | More significant effects | nor did the medication alter the menstrual cycle | appreciable reduction | improved | noted in all patients | disappeared | More significant effects |
